From patent US20150182745A1, “IONTOPHORETIC DEVICE FOR DOSAGING OF AN ACTIVE INGREDIENT” (NOVAGENT OY, priority 2012, published 2015)

Key:
[1] = in vivo; cited from earlier work
[2] = swine
Text: The invention is further described more in detail by the following examples. In the examples a device according to FIG. 2 was used. The electrodes are made of a carbon fiber textile, onto which a hydrophobic micro-porous layer of teflon is fitted. As model agent was used tacrine, which is a cationic drug. The chamber section 13a, the electrolyte space, comprised a 0.15 M aqueous solution of sodium sulphate and the chamber section 13b, the space comprising the active agent, comprised a 0.15 M aqueous solution of sodium chloride, which corresponds to a physiological salt solution. […] The membrane 15 was either a synthetic membrane (UC 101T) or swine skin. In the experiments were used Smopex®-ion exchanging fibres, made by Smoptech (Johnson Matthey).

passive flow [2]: 1.99 μg cm^−2h^−1 | passive flow (slope) [2]: 1.81 μg cm^−2h^−1
SMILES: Nc1c2c(nc3ccccc13)CCCC2 [tacrine]
clearance CL [1]: 150 dm^3h^−1 | therapeutic window [1]: 5-30 μg dm^−3
